Data on 40 molecules can be found in patent US12685312B2, “Sulfonamide apyrase inhibitors” (Texas Crop Science, Inc., priority 2022, dated 2026).

Molecules are shown by their SMILES.

The subject of this assay is apyrase. The assay is described as follows: Screen for apyrase inhibitors (Method 1, in vitro phosphate-release absorbance assay). Type of assay: biochemical. The conditions noted are these: inhibitor conc at 1 mM stock, 1 hr room temperature, absorbance 630 nm; rounded average of two assay results. In outline: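 Phosphate-release colorimetric assay (Windsor method) in 60 mM Hepes, 3 mM MgCl2, 3 mM CaCl2, 3 mM ATP, pH 6.5, with compound or DMSO control added. Released phosphate developed with ammonium molybdate and ascorbic acid/TCA, then stopped with citrate/acetic acid.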
In the case of `O=C(Nc1ccc(S(=O)(=O)NC2CC2)cc1)c1cccc(S(=O)(=O)N2CCc3ccccc32)c1` [I-478, N-(4-(N-cyclopropylsulfamoyl)phenyl)-3-(indolin-1-ylsulfonyl)benzamide], the “% Inhibition of Apyrase” value is 58%.
The figure for `COc1ccc(S(=O)(=O)N2CCc3ccccc32)cc1C(=O)Nc1ccc(OC(F)F)c(Cl)c1` [I-440, N-(3-chloro-4-(difluoromethoxy)phenyl)-5-(indolin-1-ylsulfonyl)-2-methoxybenzamide] is 62%.
For `N#Cc1cccc(NC(=O)c2cccc(NS(=O)(=O)c3ccc(Cl)c(Cl)c3)c2)c1` [I-316, N-(3-cyanophenyl)-3-((3,4-dichlorophenyl)sulfonamido)benzamide], the “% Inhibition of Apyrase” value is 69%.
For `C=CCN(c1ccccc1Cl)S(=O)(=O)c1cc(C(=O)N2CCc3ccccc32)ccc1Cl` [I-516, N-allyl-2-chloro-N-(2-chlorophenyl)-5-(indoline-1-carbonyl)benzenesulfonamide], the “% Inhibition of Apyrase” value came to 56%.
For `COc1ccccc1NC(=O)c1ccc(NS(=O)(=O)c2ccc(C#N)cc2)cc1` [I-942, 4-((4-cyanophenyl)sulfonamido)-N-(2-methoxyphenyl)benzamide] the value was 49%.
The figure for `O=C(Nc1ccccc1N1CCCC1=O)c1cccc(S(=O)(=O)N2CCc3ccccc32)c1` [I-600, 3-(indolin-1-ylsulfonyl)-N-(2-(2-oxopyrrolidin-1-yl)phenyl)benzamide] is 29%; for `COc1ccc2c(c1)CCCN2C(=O)c1ccc(S(=O)(=O)Nc2ccccc2)cc1` [I-871, 4-(6-methoxy-1,2,3,4-tetrahydroquinoline-1-carbonyl)-N-phenylbenzenesulfonamide] it is 56%.
For `COc1ccc(NS(=O)(=O)c2ccc(NC(=O)c3cccc(S(=O)(=O)N(C)C)c3)cc2)cc1` [I-991, 3-(N,N-dimethylsulfamoyl)-N-(4-(N-(4-methoxyphenyl)sulfamoyl)phenyl)benzamide] the value was 53%; for `Cc1ccccc1NC(=O)c1cc(S(=O)(=O)Nc2ccc(Br)cc2)ccc1Cl` [I-36, 5-(N-(4-bromophenyl)sulfamoyl)-2-chloro-N-(o-tolyl)benzamide], 16%; for `O=C(Nc1cc2c(cc1Cl)OCO2)c1ccc(Cl)c(S(=O)(=O)N2CCc3ccccc32)c1` [I-496, 4-chloro-N-(6-chlorobenzo[d][1,3]dioxol-5-yl)-3-(indolin-1-ylsulfonyl)benzamide], 57%.
Regarding `Cc1ccc(NC(=O)c2cccc(S(=O)(=O)N3CCc4ccccc43)c2)cc1` [I-501, 3-(indolin-1-ylsulfonyl)-N-(p-tolyl)benzamide], the “% Inhibition of Apyrase” value is given as 57%.
For `COc1ccc(NC(=O)c2ccc(S(=O)(=O)Nc3ccc(F)cc3)cc2)cc1` [I-408, 4-(N-(4-fluorophenyl)sulfamoyl)-N-(4-methoxyphenyl)benzamide] the value was 30%.
Take `O=C(O)CCc1ccc(S(=O)(=O)Nc2cccc(C(=O)Nc3cccc(C(F)(F)F)c3)c2)cc1` [I-324, 3-(4-(N-(3-((3-(trifluoromethyl)phenyl)carbamoyl)phenyl)sulfamoyl)phenyl)propanoic acid]: the “% Inhibition of Apyrase” value is recorded as 41%.
The figure for `CCOc1ccc(NS(=O)(=O)c2c(C)cccc2NC(=O)c2ccc(Cl)cc2)cc1` [I-821, 4-chloro-N-(2-(N-(4-ethoxyphenyl)sulfamoyl)-3-methylphenyl)benzamide] is 56%; for `O=C(Nc1ccccc1Cl)c1cccc(S(=O)(=O)Nc2ccc(Cl)cc2)c1` [I-177, N-(2-chlorophenyl)-3-(N-(4-chlorophenyl)sulfamoyl)benzamide] it is 69%.
The figure for `CC1Cc2ccccc2N1S(=O)(=O)c1cccc(C(=O)Nc2cc(F)ccc2F)c1` (stereo not shown) [I-469, N-(2,5-difluorophenyl)-3-((2-methylindolin-1-yl)sulfonyl)benzamide] is 59%.
The figure for `Cc1nc2ccc(NC(=O)c3cccc(S(=O)(=O)Nc4ccc5c(c4)OCO5)c3)cc2s1` [I-261, 3-(N-(benzo[d][1,3]dioxol-5-yl)sulfamoyl)-N-(2-methylbenzo[d]thiazol-6-yl)benzamide] is 60%.
Consider `O=C(c1cccc(S(=O)(=O)Nc2ccc(F)cc2)c1)N1CCc2ccccc21` [I-576, N-(4-fluorophenyl)-3-(indoline-1-carbonyl)benzenesulfonamide], for which the “% Inhibition of Apyrase” value amounted to 49%.
For `CCOc1ccc(NS(=O)(=O)c2c(C)cccc2NC(=O)c2ccc(Oc3ccccc3)cc2)cc1` [I-825, N-(2-(N-(4-ethoxyphenyl)sulfamoyl)-3-methylphenyl)-4-phenoxybenzamide] the value was 48%; for `O=C(Nc1cccnc1)c1cccc(S(=O)(=O)Nc2cccc(C(F)(F)F)c2)c1` [I-30, N-(pyridin-3-yl)-3-(N-(3-(trifluoromethyl)phenyl)sulfamoyl)benzamide], 21%.
The figure for `COc1ccc(NS(=O)(=O)c2cccc(NC(=O)c3[nH]c(C)c(C(C)=O)c3C)c2)cc1` [I-727, 4-acetyl-N-(3-(N-(4-methoxyphenyl)sulfamoyl)phenyl)-3,5-dimethyl-1H-pyrrole-2-carboxamide] is 56%.
For `O=C(Nc1cccc([N+](=O)[O-])c1)c1cccc(S(=O)(=O)Nc2cc(C(F)(F)F)ccc2Cl)c1` [I-3, 3-(N-(2-chloro-5-(trifluoromethyl)phenyl)sulfamoyl)-N-(3-nitrophenyl)benzamide] the value was 73%; for `Cc1ccc([N+](=O)[O-])cc1NC(=O)c1ccc(Cl)c(S(=O)(=O)Nc2cccc(C)c2C)c1` [I-25, 4-chloro-3-(N-(2,3-dimethylphenyl)sulfamoyl)-N-(2-methyl-5-nitrophenyl)benzamide], 28%; for `O=C(Nc1ccc(N2CCOCC2)cc1)c1cccc(S(=O)(=O)Nc2ccc(Br)cc2)c1` [I-255, 3-(N-(4-bromophenyl)sulfamoyl)-N-(4-morpholinophenyl)benzamide], 61%.
In the case of `COc1ccc(NC(=O)c2ccccc2NS(=O)(=O)c2cccc(C(F)(F)F)c2)cc1OC` [I-228, N-(3,4-dimethoxyphenyl)-2-((3-(trifluoromethyl)phenyl)sulfonamido)benzamide], the “% Inhibition of Apyrase” value stood at 55%.
The figure for `COc1ccc(NS(=O)(=O)c2cc(C)ccc2NC(=O)c2cc(C)oc2C)cc1` [I-818, N-(2-(N-(4-methoxyphenyl)sulfamoyl)-4-methylphenyl)-2,5-dimethylfuran-3-carboxamide] is 60%.
The figure for `Cc1ccc(C(=O)Nc2cccc(NS(=O)(=O)c3ccccc3)c2)cc1C` [I-184, 3,4-dimethyl-N-(3-(phenylsulfonamido)phenyl)benzamide] is 81%; for `Cc1ccc(C(=O)Nc2ccccc2S(=O)(=O)Nc2ccccc2)cc1F` [I-817, 3-fluoro-4-methyl-N-(2-(N-phenylsulfamoyl)phenyl)benzamide] it is 64%; for `Cc1ccc(NC(=O)c2ccc(C(=O)Nc3ccc(C)cc3)cc2)cc1` [I-859, N1,N4-di-p-tolylterephthalamide] it is 72%.
For `Cc1ccc(NS(=O)(=O)c2ccc(C(=O)N3CCc4cc(S(N)(=O)=O)ccc43)cc2)cc1` [I-884, 1-(4-(N-(p-tolyl)sulfamoyl)benzoyl)indoline-5-sulfonamide] the value was 48%; for `Cc1cccc(NC(=O)c2cccc(S(=O)(=O)Nc3ccc4c(c3)OCO4)c2)c1` [I-270, 3-(N-(benzo[d][1,3]dioxol-5-yl)sulfamoyl)-N-(m-tolyl)benzamide], 57%; for `O=C(Nc1cccc(S(=O)(=O)Nc2ccc(I)cc2)c1)c1ccccn1` [I-723, N-(3-(N-(4-iodophenyl)sulfamoyl)phenyl)picolinamide], 57%.
Regarding `O=C(Nc1ccc(S(=O)(=O)Nc2cccc(C(F)(F)F)c2)cc1)c1ccc(F)cc1Cl` [I-977, 2-chloro-4-fluoro-N-(4-(N-(3-(trifluoromethyl)phenyl)sulfamoyl)phenyl) benzamide], the “% Inhibition of Apyrase” value was 59%.
Turning to `COc1ccc(NC(=O)c2ccc(NS(=O)(=O)c3ccc(F)cc3)cc2)cc1OC` [I-958, N-(3,4-dimethoxyphenyl)-4-((4-fluorophenyl)sulfonamido)benzamide], the “% Inhibition of Apyrase” value was 19%.
For `COc1ccc(NC(=O)c2cccc(S(=O)(=O)N(C)c3ccc(OC)cc3)c2)cc1` [I-514, N-(4-methoxyphenyl)-3-(N-(4-methoxyphenyl)-N-methylsulfamoyl)benzamide] the value was 56%; for `O=C(Nc1cccnc1)c1cccc(NS(=O)(=O)c2ccc3c(c2)OCCCO3)c1` [I-629, 3-((3,4-dihydro-2H-benzo[b][1,4]dioxepine)-7-sulfonamido)-N-(pyridin-3-yl)benzamide], 67%.
For `O=C(c1cccc(S(=O)(=O)Nc2cccc(C(F)(F)F)c2)c1)N1CCCc2ccccc21` [I-441, 3-(1,2,3,4-tetrahydroquinoline-1-carbonyl)-N-(3-(trifluoromethyl)phenyl)benzenesulfonamide] the value was 62%; for `Cc1cc(C(=O)Nc2cccc(S(=O)(=O)N(C)c3ccccc3)c2)on1` [I-748, 3-methyl-N-(3-(N-methyl-N-phenylsulfamoyl)phenyl)isoxazole-5-carboxamide], 42%.
For `O=C(Nc1cccc(Br)c1)c1ccc(NS(=O)(=O)c2cccc([N+](=O)[O-])c2)cc1` [I-940, N-(3-bromophenyl)-4-((3-nitrophenyl)sulfonamido)benzamide] the value was 50%; for `O=C(Nc1cccc(Cl)c1)c1cccc(NS(=O)(=O)c2cccs2)c1` [I-631, N-(3-chlorophenyl)-3-(thiophene-2-sulfonamido)benzamide], 62%.
